In paper PMC12286210, “Immobilization of Pleurotus eryngii Laccase via a Protein–Inorganic Hybrid for Efficient Degradation of Bisphenol A as a Potent Xenobiotic” (Journal of Xenobiotics, 2025) one finds Km data, which are given here for one molecule.

The test system of the test is T1, PeLac (Pleurotus eryngii laccase).
T1 construct: gene ery3
The settings on record: free enzyme, partially purified; ABTS 0.01-2.0 mM; 25 °C; co-substrate O2.

In the case of `CCn1c(=NN=c2sc3cc(S(=O)(=O)O)ccc3n2CC)sc2cc(S(=O)(=O)O)ccc21` [ABTS], the Km (usually the concentration of substrate that gives half-maximal velocity) came to 118 ± 8.9 µM.
